From PubChem BioAssay (NCI) come the findings set out here.

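Grown in 96-well plates, cells were treated for 48 hours with each compound at five concentrations. Insufficient inhibition: endpoint recorded as highest concentration tested. The concentration for full growth arrest is given as TGI.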 Some results are limits rather than exact numbers.

Some test systems named below: NCI-H226 lung; OVCAR-3 ovarian; MDA-MB-435; KM12 colon; A549 NSCLC; M14 melanoma; CAKI-1 renal; SN12C renal; K-562 leukemia; U251 CNS; UO-31 renal; SF-539 CNS; OVCAR-5 ovarian; SNB-75 CNS; HT29 colon; SK-MEL-28 melanoma; OVCAR-8 ovarian; HCC-2998 colon.
Holding throughout (test): NCI-60 cell line screen, 48 h

Regarding `O=C(/C=C(\O)c1ccc(Cl)cc1)C(=O)N=Nc1c(O)[nH]c2ccc(Br)cc12`, the TGI is greater than 100 µM with NCI-H226 lung; 95.9 µM with OVCAR-3 ovarian; greater than 100 µM in the assay with MDA-MB-435; greater than 100 µM with KM12 colon; greater than 100 µM with A549 NSCLC; greater than 100 µM in the assay with M14 melanoma. Further, the TGI was greater than 100 µM in the assay on CAKI-1 renal; greater than 100 µM in the assay on SN12C renal; 45.8 µM with K-562 leukemia; greater than 100 µM in the assay with U251 CNS; greater than 100 µM in the assay with UO-31 renal; greater than 100 µM in the assay on SF-539 CNS. The TGI in the assay on OVCAR-5 ovarian, in the assay with SNB-75 CNS, in the assay on HT29 colon, in the assay on SK-MEL-28 melanoma, in the assay on OVCAR-8 ovarian and with HCC-2998 colon was greater than 100 µM each time.
As for `CCN(CC)CC(=O)Nc1c(C(N)=O)nnn1Cc1cc(Cl)c(C(=O)c2ccc(Cl)cc2)c(Cl)c1`, the TGI in the assay with NCI-H226 lung turned out to be 30.4 µM; with OVCAR-3 ovarian it was 31.7 µM; in the assay on MDA-MB-435, 37.2 µM; in the assay on KM12 colon, 35.8 µM; in the assay on A549 NSCLC, 79.6 µM; in the assay with M14 melanoma it was 30.9 µM. For the same molecule, the TGI with CAKI-1 renal worked out at 65.1 µM; in the assay with SN12C renal it was 50.3 µM; in the assay with K-562 leukemia it was 37.4 µM; in the assay on U251 CNS, 41.1 µM; in the assay with UO-31 renal it was 31.2 µM; in the assay on SF-539 CNS, 31.4 µM. Further, the TGI worked out at 40.7 µM with OVCAR-5 ovarian; 59 µM in the assay with SNB-75 CNS; 38.6 µM with HT29 colon; 33.3 µM in the assay on SK-MEL-28 melanoma; 34.7 µM with OVCAR-8 ovarian; 32.1 µM with HCC-2998 colon.
Regarding `Cc1ccc(S(=O)(=O)N2CC3OC(C)(C)OC3C2CO)cc1` (stereo not given), the TGI with NCI-H226 lung, in the assay with OVCAR-3 ovarian, in the assay on MDA-MB-435, in the assay with KM12 colon, in the assay with A549 NSCLC and in the assay on M14 melanoma was greater than 100 µM in each case. Also, the TGI in the assay on CAKI-1 renal, in the assay on SN12C renal, in the assay on K-562 leukemia, with U251 CNS, in the assay with SF-539 CNS and in the assay on OVCAR-5 ovarian was greater than 100 µM throughout. Moreover, the TGI with SNB-75 CNS, with HT29 colon, with SK-MEL-28 melanoma, in the assay on OVCAR-8 ovarian and in the assay on HCC-2998 colon was greater than 100 µM throughout.
For `Cc1ccc([N+](=O)[O-])c2c(NCCNC(=O)Cn3ccnc3[N+](=O)[O-])ccnc12`, the TGI was 88 µM with NCI-H226 lung; 52.6 µM in the assay on OVCAR-3 ovarian; greater than 100 µM in the assay on MDA-MB-435; greater than 100 µM with KM12 colon; greater than 100 µM in the assay with A549 NSCLC; greater than 100 µM in the assay with M14 melanoma. Besides, the TGI with CAKI-1 renal, with SN12C renal, in the assay on K-562 leukemia, in the assay on U251 CNS, in the assay on UO-31 renal and in the assay on SF-539 CNS was greater than 100 µM throughout. Besides, the TGI with OVCAR-5 ovarian, in the assay on SNB-75 CNS, in the assay with HT29 colon, with SK-MEL-28 melanoma, with OVCAR-8 ovarian and in the assay on HCC-2998 colon was greater than 100 µM each time.
For the molecule `CC1=NN(c2nc(N)nc(CCl)n2)CC1`, the TGI was greater than 100 µM in the assay with NCI-H226 lung; 35.3 µM in the assay with OVCAR-3 ovarian; greater than 100 µM with MDA-MB-435; 55.3 µM in the assay with KM12 colon; greater than 100 µM with A549 NSCLC; 80.4 µM in the assay on M14 melanoma. The TGI is 21.4 µM in the assay with CAKI-1 renal; greater than 100 µM in the assay on SN12C renal; 32.7 µM with K-562 leukemia; greater than 100 µM with U251 CNS; 20.5 µM with UO-31 renal; 57.9 µM with SF-539 CNS. Besides, the TGI with OVCAR-5 ovarian was 57.4 µM; in the assay on SNB-75 CNS, 74.1 µM; with HT29 colon, greater than 100 µM; in the assay with SK-MEL-28 melanoma, 56.4 µM; in the assay with OVCAR-8 ovarian, 48.6 µM; in the assay with HCC-2998 colon, greater than 100 µM.
In the case of `COc1cc(/C=C2\C[C@H]3[C@@H]4CC=C5C[C@@H](O)CC[C@]5(C)[C@H]4CC[C@]3(C)[C@H]2O)cc(OC)c1OC`, the TGI is greater than 100 µM in the assay with NCI-H226 lung; 88 µM in the assay on OVCAR-3 ovarian; 87.2 µM with MDA-MB-435; 39.4 µM in the assay with KM12 colon; greater than 100 µM with A549 NSCLC; 61.7 µM in the assay on M14 melanoma. Moreover, the TGI in the assay with CAKI-1 renal was greater than 100 µM; in the assay on SN12C renal, greater than 100 µM; in the assay with K-562 leukemia, greater than 100 µM; with U251 CNS, 40.8 µM; in the assay with UO-31 renal, 36.8 µM; in the assay on SF-539 CNS, greater than 100 µM. The TGI in the assay with OVCAR-5 ovarian was 61.9 µM; with SNB-75 CNS it was 75.4 µM; with HT29 colon it was 27.6 µM; with SK-MEL-28 melanoma, greater than 100 µM; in the assay with OVCAR-8 ovarian, greater than 100 µM; in the assay on HCC-2998 colon, greater than 100 µM.
For the molecule `Cc1ccc2c(c1)C(=O)/C(=C\c1ccccc1)CCS2(=O)=O`, the TGI was greater than 49.9 µM in the assay with NCI-H226 lung; 39.9 µM with OVCAR-3 ovarian; greater than 61.4 µM in the assay with MDA-MB-435; 28.2 µM in the assay with KM12 colon; greater than 87.8 µM with A549 NSCLC; greater than 53.8 µM with M14 melanoma. Moreover, the TGI amounted to 49.9 µM in the assay on CAKI-1 renal; 53.3 µM with SN12C renal; 5.52 µM in the assay with K-562 leukemia; 31 µM in the assay with U251 CNS; 26.7 µM with UO-31 renal; 29.9 µM with SF-539 CNS. Besides, the TGI with OVCAR-5 ovarian was greater than 55.7 µM; in the assay with SNB-75 CNS, greater than 58 µM; in the assay on HT29 colon, 24.1 µM; in the assay on SK-MEL-28 melanoma it was greater than 66.4 µM; with OVCAR-8 ovarian, 62.6 µM; in the assay with HCC-2998 colon, 28.6 µM.
